Experiments:
Experiment in all cases: p-nitrophenol release at […] nm, Michaelis-Menten fit
Assay type in all cases: biochemical, uncultured bacterium (alpaca faeces metagenome)
Conditions in all cases: 50 mM potassium phosphate pH 7.5, 20 °C
Fuc25A = test system: Fuc25A
Fuc25E = test system: Fuc25E
Fuc25C = test system: Fuc25C
Fuc25D = test system: Fuc25D

Km (Fuc25A): 334 ± 21.4 µM | Km (Fuc25E): 85.1 ± 12.9 µM | Km (Fuc25C): 1400 ± 374 µM | Km (Fuc25D): 79.7 ± 8.6 µM
SMILES: C[C@@H]1O[C@@H](Oc2ccc([N+](=O)[O-])cc2)[C@@H](O)[C@H](O)[C@@H]1O [pNP-αFuc]

— article PMC10815079, “α-L-Fucosidases from an Alpaca Faeces Metagenome: Characterisation of Hydrolytic and Transfucosylation Potential” (International Journal of Molecular Sciences, 2024)
